Assay results published in patent US8012975B2, “Antitumoral analogs of ET-743” (Pharma Mar, S.A., priority 2000, dated 2011).
Read-outs that look alike come from different tables or passages of the source.

What was measured:
U-937 = experiment: Cytotoxic activity (M) panel, Lymphoma Histiocytic U-937; details: Homo sapiens, U-937, read-out: CYTOTOXIC ACTIVITY (M) U-937
MC116 = experiment: Cytotoxic activity (M) panel, Lymphoma undifferentiated MC116; details: Homo sapiens, MC116, read-out: CYTOTOXIC ACTIVITY (M) MC116, leukemias & lymphomas, Lymphoma undifferentiated, line MC116
Hut 78 = experiment: Cytotoxic activity (M) panel, Lymphoma Cutaneus T cell Hut 78; details: Homo sapiens, HuT78, read-out: CYTOTOXIC ACTIVITY (M) Hut 78, leukemias & lymphomas, Lymphoma Cutaneus T cell, line Hut 78
Molt 3 = experiment: Cytotoxic activity (M) panel, Acute lymphoblastic Molt 3; details: Homo sapiens, MOLT-3, read-out: CYTOTOXIC ACTIVITY (M) Molt 3, leukemias & lymphomas, ALL Acute lymphoblastic, line Molt 3
FADU = experiment: Cytotoxic activity (M) panel, Pharnynx FADU; details: Homo sapiens, read-out: CYTOTOXIC ACTIVITY (M) FADU
MEL-28 [1] = experiment: Cytotoxic activity (M) panel, Melanoma Mel-28; details: Homo sapiens, SK-MEL-28, read-out: CYTOTOXIC ACTIVITY (M) Mel-28
SK-HEP-1 = experiment: Cytotoxic activity (M) panel, Liver SK-HEP-1; details: Homo sapiens, SK-HEP1, read-out: CYTOTOXIC ACTIVITY (M) SK-HEP-1
MX-1 = experiment: Cytotoxic activity (M) panel, Breast MX-1; details: Homo sapiens, MX1, read-out: CYTOTOXIC ACTIVITY (M) MX-1
OSA-FH = experiment: Cytotoxic activity (M) panel, Osteosarcoma OSA-FH; details: read-out: CYTOTOXIC ACTIVITY (M) OSA-FH
Y-79 = experiment: Cytotoxic activity (M) panel, Retinoblastoma Y-79; details: Homo sapiens, Y79, read-out: CYTOTOXIC ACTIVITY (M) Y-79
5637 = experiment: Cytotoxic activity (M) panel, Bladder 5637; details: read-out: CYTOTOXIC ACTIVITY (M) 5637
LNCAP = experiment: Cytotoxic activity (M) panel, Prostate LNCAP; details: Homo sapiens, read-out: CYTOTOXIC ACTIVITY (M) LNCAP
NCI-H187 = experiment: Cytotoxic activity (M) panel, SCL NCI-H187; details: Homo sapiens, NCI-H187, read-out: CYTOTOXIC ACTIVITY (M) NCI-H187
PANC-1 = experiment: Cytotoxic activity (M) panel, Pancreas PANC-1; details: Homo sapiens, PANC-1, read-out: CYTOTOXIC ACTIVITY (M) PANC-1
786-O = experiment: Cytotoxic activity (M) panel, Renal 786-O; details: Homo sapiens, 786-0, read-out: CYTOTOXIC ACTIVITY (M) 786-O
CHSA = experiment: Cytotoxic activity (M) panel, Chondrosarcoma CHSA; details: read-out: CYTOTOXIC ACTIVITY (M) CHSA
Hs746t = experiment: Cytotoxic activity (M) panel, Gastric Hs746t; details: Homo sapiens, read-out: CYTOTOXIC ACTIVITY (M) Hs746t
P-388 [2] = experiment: Cytotoxic activity IC50, P-388; details: Mus musculus, P388, read-out: CYTOTOXIC ACTIVITIY IC50 (μM) P-388
HT-29 [3] = experiment: Cytotoxic activity IC50, HT-29; details: Homo sapiens, HT-29, read-out: CYTOTOXIC ACTIVITIY IC50 (μM) HT-29, HT-29
in vitro = details: African green monkey
A-549 [4] = experiment: Cytotoxic activity IC50, A-549; details: Homo sapiens, A549, read-out: CYTOTOXIC ACTIVITIY IC50 (μM) A-549, A-549
MEL-28 [5] = experiment: Cytotoxic activity IC50, MEL-28; details: Homo sapiens, SK-MEL-28, read-out: CYTOTOXIC ACTIVITIY IC50 (μM) MEL-28, MEL-28
DU-145 [6] = experiment: Cytotoxic activity IC50, DU-145; details: Homo sapiens, DU-145, read-out: CYTOTOXIC ACTIVITIY IC50 (μM) DU-145, DU-145
A-549 [7] = tested on: A-549
P-388 [8] = tested on: P-388
DU-145 [9] = tested on: DU-145
MEL-28 [10] = tested on: MEL-28
HT-29 [11] = tested on: HT-29
SK-OV-3 = experiment: Cytotoxic activity (M) panel, Ovary SK-OV-3; details: Homo sapiens, SK-OV-3, read-out: CYTOTOXIC ACTIVITY (M) SK-OV-3
HT-29 [12] = experiment: Cytotoxic activity (M) panel, Colon HT-29; details: Homo sapiens, HT-29, read-out: CYTOTOXIC ACTIVITY (M) HT-29
PC3 = experiment: Cytotoxic activity (M) panel, Prostate PC3; details: Homo sapiens, PC-3, read-out: CYTOTOXIC ACTIVITY (M) PC3

COc1c(C)cc2c(c1O)[C@@H]1C3Cc4c(OC(C)=O)c(C)c5c(c4[C@H](CNC(=O)/C=C/c4cccc(C(F)(F)F)c4)N3[C@@H](O)[C@H](C2)N1C)OCO5 (stereo partly drawn) [drawing 218]
IC50 (U-937): 1.77e-10 M | IC50 (MC116): 2.15e-10 M | IC50 (Hut 78): 5.5e-11 M | IC50 (Molt 3): 6.13e-10 M

CCC(=O)N[C@@H](C)C(=O)NC[C@H]1c2c(c(OC(C)=O)c(C)c3c2OCO3)CC2[C@H]3c4c(cc(C)c(OC)c4O)C[C@@H]([C@H](O)N21)N3C (stereo partly drawn) [drawing 228]
IC50 (FADU): 4.38e-08 M | IC50 (MEL-28 [1]): 1.42e-08 M | IC50 (SK-HEP-1): 6.21e-09 M | IC50 (MX-1): 1.92e-09 M | IC50 (OSA-FH): 1.15e-08 M | IC50 (Y-79): 7.45e-10 M | IC50 5637: 1.17e-09 M | IC50 (LNCAP): 1.77e-08 M | IC50 (NCI-H187): 9.89e-11 M | IC50 (PANC-1): 8.61e-09 M | IC50 (786-O): 1.54e-08 M | IC50 (CHSA): 2.91e-08 M | IC50 (Hs746t): 8.15e-09 M

COC1=C(C)C(=O)C2=C3C1=NCC3N1C(C2)[C@H]2c3c(cc(C)c(OC)c3O)C[C@@H]([C@@H]1C#N)N2C (stereo partly drawn)
IC50 (P-388 [2]): 2.17 µM | IC50 (HT-29 [3]): 2.17 µM | IC50 (in vitro): 2170 nM | IC50 (A-549 [4]): 2.17 µM | IC50 (MEL-28 [5]): 2.17 µM

C=CCOc1c(C)c2c(c3c1CC1[C@H]4c5c(cc(C)c(OC)c5O)C[C@@H]([C@H](C#N)N1[C@H]3CNC(=O)OCC(Cl)(Cl)Cl)N4C)OCO2 (stereo partly drawn)
IC50 (P-388 [2]): 0.014 µM | IC50 (HT-29 [3]): 0.014 µM | IC50 (in vitro): 14 nM | IC50 (A-549 [4]): 0.014 µM | IC50 (MEL-28 [5]): 0.014 µM

CCCCCC(=O)N[C@@H](C)C(=O)NC[C@H]1c2c(c(OC(C)=O)c(C)c3c2OCO3)CC2[C@H]3c4c(cc(C)c(OC)c4O)C[C@@H]([C@H](C#N)N21)N3C (stereo partly drawn)
IC50 (P-388 [2]): 0.001 µM | IC50 (HT-29 [3]): 0.001 µM | IC50 (in vitro): 1 nM | IC50 (DU-145 [6]): 0.001 µM | IC50 (A-549 [4]): 0.001 µM | IC50 (MEL-28 [5]): 0.001 µM

C=CCOc1c(C)c2c(c3c1CC1[C@H]4c5c(cc(C)c(OC)c5OCOC)C[C@@H]([C@H](C#N)N1[C@H]3CN)N4C)OCO2 (stereo partly drawn)
IC50 (HT-29 [3]): 1.8 µM | IC50 (in vitro): 1800 nM | IC50 (DU-145 [6]): 1.8 µM | IC50 (A-549 [4]): 1.8 µM | IC50 (MEL-28 [5]): 1.8 µM

CCCCCC(=O)NC[C@H]1c2c(c(OC(C)=O)c(C)c3c2OCO3)CC2[C@H]3c4c(cc(C)c(OC)c4O)C[C@@H]([C@H](C#N)N21)N3C (stereo partly drawn) [drawing 120]
IC50 (A-549 [7]): 0.1 nM | IC50 (P-388 [8]): 0.1 nM | IC50 (DU-145 [9]): 0.1 nM | IC50 (MEL-28 [10]): 0.1 nM | IC50 (in vitro): 0.1 nM | IC50 (HT-29 [11]): 0.1 nM

CCCC(=O)NC[C@H]1c2c(c(OC(C)=O)c(C)c3c2OCO3)CC2[C@H]3c4c(cc(C)c(OC)c4O)C[C@@H]([C@H](O)N21)N3C (stereo partly drawn) [drawing 229]
IC50 (U-937): 1.92e-09 M | IC50 (MC116): 1.62e-08 M | IC50 (Hut 78): 7.33e-09 M | IC50 (Molt 3): 1.62e-09 M

COc1c(C)cc2c(c1O)[C@@H]1C3Cc4c(OC(C)=O)c(C)c5c(c4[C@H](CNC(=O)[C@H](C)NC(=O)C(F)(F)F)N3[C@@H](O)[C@H](C2)N1C)OCO5 (stereo partly drawn) [drawing 219]
IC50 (U-937): 5.27e-11 M | IC50 (MC116): 2.65e-10 M | IC50 (Hut 78): 2.57e-10 M | IC50 (Molt 3): 2.8e-09 M

COc1c(C)cc2c(c1O)[C@@H]1C3Cc4c(OC(C)=O)c(C)c5c(c4[C@H](CNC(=O)/C=C/c4ccccc4)N3[C@@H](O)[C@H](C2)N1C)OCO5 (stereo partly drawn) [drawing 220]
IC50 (U-937): 3.28e-11 M | IC50 (MC116): 3.8e-09 M | IC50 (Hut 78): 4.62e-09 M | IC50 (Molt 3): 5.66e-10 M

CCCCCC(=O)N[C@@H](C)C(=O)NC[C@H]1c2c(c(OC(C)=O)c(C)c3c2OCO3)CC2[C@H]3c4c(cc(C)c(OC)c4O)C[C@@H]([C@H](O)N21)N3C (stereo partly drawn)
IC50 (P-388 [2]): 0.001 µM | IC50 (HT-29 [3]): 0.001 µM | IC50 (in vitro): 1 nM | IC50 (DU-145 [6]): 0.001 µM | IC50 (A-549 [4]): 0.001 µM | IC50 (MEL-28 [5]): 0.001 µM

C=CCOc1c(C)c2c(c3c1CC1[C@H]4c5c(cc(C)c(OC)c5OCOC)C[C@@H]([C@H](C#N)N1[C@H]3CNC(=O)OCC(Cl)(Cl)Cl)N4C)OCO2 (stereo partly drawn)
IC50 (P-388 [2]): 0.13 µM | IC50 (HT-29 [3]): 0.13 µM | IC50 (in vitro): 130 nM | IC50 (A-549 [4]): 0.13 µM | IC50 (MEL-28 [5]): 0.13 µM

C=CCOc1c(C)c2c(c3c1CC1[C@H]4c5c(cc(C)c(OC)c5OCOC)C[C@@H]([C@H](C#N)N1[C@H]3COC(=O)CCc1ccccc1)N4C)OCO2 (stereo partly drawn)
IC50 (P-388 [2]): 0.7 µM | IC50 (HT-29 [3]): 0.7 µM | IC50 (in vitro): 700 nM | IC50 (DU-145 [6]): 0.7 µM | IC50 (A-549 [4]): 0.7 µM | IC50 (MEL-28 [5]): 0.7 µM

COCOc1c(OC)c(C)cc2c1[C@@H]1C3CC4=C(C(=O)C(OC)=C(C)C4=O)[C@H](CNC(C)=O)N3[C@@H](C#N)[C@H](C2)N1C (stereo partly drawn)
IC50 (P-388 [2]): 0.22 µM | IC50 (HT-29 [3]): 0.22 µM | IC50 (in vitro): 220 nM | IC50 (A-549 [4]): 0.22 µM | IC50 (MEL-28 [5]): 0.22 µM

COC1=C(C)C(=O)C2=C(C1=O)[C@H](CNC(=O)[C@H](C)NC(=O)C(F)(F)F)N1C(C2)[C@H]2c3c(cc(C)c(OC)c3O)C[C@@H]([C@@H]1C#N)N2C (stereo partly drawn)
IC50 (P-388 [2]): 0.01 µM | IC50 (HT-29 [3]): 0.01 µM | IC50 (in vitro): 100 nM | IC50 (DU-145 [6]): 0.01 µM | IC50 (A-549 [4]): 0.01 µM | IC50 (MEL-28 [5]): 0.01 µM

CCC(=O)NC[C@H]1c2c(c(OC(C)=O)c(C)c3c2OCO3)CC2[C@H]3c4c(cc(C)c(OC)c4O)C[C@@H]([C@H](O)N21)N3C (stereo partly drawn) [drawing 227]
IC50 (FADU): 3.05e-08 M | IC50 (MEL-28 [1]): 2.85e-09 M | IC50 (SK-HEP-1): 1.17e-09 M | IC50 (SK-OV-3): 2.9e-08 M | IC50 (OSA-FH): 4.37e-09 M | IC50 (Y-79): 3.08e-10 M | IC50 5637: 9.91e-10 M | IC50 (LNCAP): 2.38e-08 M | IC50 (NCI-H187): 2.41e-11 M | IC50 (PANC-1): 1.37e-09 M | IC50 (786-O): 2.27e-09 M | IC50 (CHSA): 1.63e-09 M | IC50 (Hs746t): 1.36e-09 M

COc1c(C)cc2c(c1O)[C@@H]1C3Cc4c(OC(C)=O)c(C)c5c(c4[C@H](CNC(=O)[C@H](C)NC(=O)CCc4ccccc4)N3[C@@H](O)[C@H](C2)N1C)OCO5 (stereo partly drawn) [drawing 215]
IC50 (FADU): 8.41e-10 M | IC50 (HT-29 [12]): 7.43e-10 M | IC50 (MEL-28 [1]): 1.08e-09 M | IC50 (SK-HEP-1): 1.4e-09 M | IC50 (OSA-FH): 8.84e-10 M | IC50 (PC3): 8.13e-10 M | IC50 5637: 1.65e-10 M | IC50 (PANC-1): 8.93e-10 M | IC50 (786-O): 7.88e-10 M | IC50 (CHSA): 1.08e-09 M | IC50 (Hs746t): 9.35e-10 M
